Read-outs that look alike come from different tables or passages of the source. *1 amine or outer side, *2 acyl side, *3 side chain or, on linkers, in order; H or OH if unused. Where a SMILES comes first, the peptide text is derived from it. [ ]: non-standard residue; d: D form. The star is where a group is joined. ξ: configuration not given here. X6 = O=C(O)CC(NS(=O)(=O)c1ccc(-c2cccc(NC(=O)Nc3nc4ccccc4[nH]3)c2)cc1)c1cccc(N*)c1; Camptothecin(20R,20-O) = CC[C@]1(O*)C(=O)OCc2c1cc1n(c2=O)Cc2cc3ccccc3nc2-1; X1 = CCCNC(=O)Nc1cccc(S(=O)(=O)Nc2cccc(C(CC(=O)O)N*)c2)c1; NH(1,4-C6H4)NHCS = S=C(Nc1ccc(N[*:1])cc1)[*:2]; ξH = NC(Cc1c[nH]cn1)C(=O)O; CO = O=C([*:1])[*:2]
What was measured:
HT29 = assay: Growth inhibition test (MTT), cytotoxic action on tumour cell lines; format: cell-based, human
Method: (§1) The human large intestine cell lines SW 480 and HT29 (ATCC No. CCL 228 and HTB38 and the mouse melanoma cell line B16F10 (CRL 6475) were grown to confluence in Roux dishes in RPMI 1640 medium with addition of 10% FCS. They were then trypsinized and taken up in RPMI plus 10% FCS to a cell count of 50,000 cells or, for B16F10, 20,000 cells per ml. 100 μl of cell suspension/well were added to a 96 microwell plate and incubated at 37° C. for 1 day in a CO2 incubator. A further 100 μl of RPMI medium and 1 μl of DMSO were then added with the test substances. The growth was checked after day 6. For this, 25 μl of MTT solution (3-(4,5-dimethylthiazol-2-yl)-2,5-diphenyltetrazolium bromide) was added to each well at a starting concentration of 5 mg/ml of H2O. The plate was incubated at 37° C. for 5 hours in a CO2 incubator. The medium was then aspirated and 100 μl of i-propanol/well were added. After shaking with 100 μl of H2O for 30 min, the extinction was measured at 595 nm using a Multiplate Reader (BIO-RAD) 3550-UV).
(§2) The cytostatic action is indicated in Table 2 as an IC50 value, in each case for the individual cell lines.

SW 480 = assay: as above; format: cell-based, human
Method: as §1, §2

B16F10 = assay: as above; format: cell-based, mouse
Method: as §1, §2

αvβ3 receptor = molecular target: T1, αvβ3 receptor (Homo sapiens, UniProt P05106+P06756); assay: αvβ3 binding test (echistatin displacement, WGA SPA beads); conditions: IC50 values of the binding to the αvβ3 receptor, αvβ3 from human A375 cells
T1 construct: αvβ3 from human A375 cells was purified; endogenous in cells; host or cells: human A375 cells (receptor purified from the cells, analogous to Wong et al. 1996)
Method: αvβ3 from human A375 cells was purified analogously to a procedure which was described by Wong et al. (Molecular Pharmacology, 50, 529-537 (1996)). In each case, 10 μl of αvβ3 (5 ng) in TBS pH 7.6, 2 mM CaCl2, 1 mM MgCl2, 1% n-octylglucopyranoside (Sigma); 10 μl of test substance in TBS pH 7.6, 0.1% DMSO and 45 μl of TBS pH 7.6, 2 mM CaCl2, 1 mM MgCl2, 1 mM MnCl2 were incubated at room temperature for 1 h. In each case, 25 μl of WGA SPA beads (Amersham, 4 mg/ml) and 10 μl of echistatin (0.1 μCi, Amersham, chloramine-T labelled) were then added. After 16 hours at room temperature, the samples were measured in a scintillation measuring apparatus (Wallac 1450).

[1] = HT29, MTT after day 6, read-out: IC50 values of the cytotoxic action on tumour cell lines, HT29
[2] = SW480, MTT after day 6, read-out: IC50 values of the cytotoxic action on tumour cell lines, SW480
[3] = B16F10, MTT after day 6, read-out: IC50 values of the cytotoxic action on tumour cell lines, B16F10

T1 sequence (P06756 31-889 limits assumed): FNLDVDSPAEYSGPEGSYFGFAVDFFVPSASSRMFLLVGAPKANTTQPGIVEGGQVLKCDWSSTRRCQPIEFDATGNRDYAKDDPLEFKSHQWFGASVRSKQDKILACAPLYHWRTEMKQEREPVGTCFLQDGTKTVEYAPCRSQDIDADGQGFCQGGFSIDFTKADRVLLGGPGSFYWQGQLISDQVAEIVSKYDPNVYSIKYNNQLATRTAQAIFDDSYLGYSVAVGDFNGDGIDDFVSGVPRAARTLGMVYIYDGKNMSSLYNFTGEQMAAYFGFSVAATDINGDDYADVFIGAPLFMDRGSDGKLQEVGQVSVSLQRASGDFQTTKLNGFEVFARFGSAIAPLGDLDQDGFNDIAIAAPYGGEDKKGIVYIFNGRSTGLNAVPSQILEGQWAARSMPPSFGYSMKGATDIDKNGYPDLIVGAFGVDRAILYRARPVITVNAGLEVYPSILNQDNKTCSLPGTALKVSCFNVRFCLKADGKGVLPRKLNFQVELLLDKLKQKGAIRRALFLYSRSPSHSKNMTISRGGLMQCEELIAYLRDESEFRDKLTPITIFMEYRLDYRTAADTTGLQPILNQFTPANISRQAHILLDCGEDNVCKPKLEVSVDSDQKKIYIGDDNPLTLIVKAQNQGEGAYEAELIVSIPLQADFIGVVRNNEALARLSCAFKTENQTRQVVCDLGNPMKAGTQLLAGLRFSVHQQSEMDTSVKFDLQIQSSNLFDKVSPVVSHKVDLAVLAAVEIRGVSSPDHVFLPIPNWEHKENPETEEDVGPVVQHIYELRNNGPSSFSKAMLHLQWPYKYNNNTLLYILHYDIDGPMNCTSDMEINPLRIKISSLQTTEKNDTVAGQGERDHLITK
T1 sequence (P06756 891-1048 partner limits assumed): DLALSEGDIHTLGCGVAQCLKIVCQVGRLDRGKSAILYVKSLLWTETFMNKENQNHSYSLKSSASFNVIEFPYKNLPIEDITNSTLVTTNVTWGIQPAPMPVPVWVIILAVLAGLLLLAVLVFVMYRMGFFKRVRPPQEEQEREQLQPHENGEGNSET
T1 sequence (P05106 27-788): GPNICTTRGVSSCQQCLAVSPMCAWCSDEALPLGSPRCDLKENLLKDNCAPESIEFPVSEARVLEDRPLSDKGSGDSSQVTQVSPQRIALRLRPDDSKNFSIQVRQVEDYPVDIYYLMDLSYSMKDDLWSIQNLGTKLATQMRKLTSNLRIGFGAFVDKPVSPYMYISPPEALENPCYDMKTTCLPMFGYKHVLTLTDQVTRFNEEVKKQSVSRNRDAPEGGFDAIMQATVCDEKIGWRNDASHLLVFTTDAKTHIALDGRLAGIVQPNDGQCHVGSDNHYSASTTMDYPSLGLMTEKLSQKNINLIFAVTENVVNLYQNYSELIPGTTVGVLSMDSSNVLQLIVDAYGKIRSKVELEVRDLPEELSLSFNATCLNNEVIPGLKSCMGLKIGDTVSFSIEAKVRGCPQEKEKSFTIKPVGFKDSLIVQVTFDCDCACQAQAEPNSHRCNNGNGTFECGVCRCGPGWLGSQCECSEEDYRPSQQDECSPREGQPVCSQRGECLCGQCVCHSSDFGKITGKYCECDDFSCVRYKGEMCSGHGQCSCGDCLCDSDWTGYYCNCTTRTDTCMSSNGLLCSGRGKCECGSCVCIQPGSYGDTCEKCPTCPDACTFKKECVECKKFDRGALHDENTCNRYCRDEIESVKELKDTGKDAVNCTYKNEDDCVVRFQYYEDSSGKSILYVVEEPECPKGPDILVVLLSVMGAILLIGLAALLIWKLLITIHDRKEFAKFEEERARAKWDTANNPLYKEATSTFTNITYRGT

| Compound | IC50 (HT29; [1]) [nM] | IC50 (SW 480; [2]) [nM] | IC50 (B16F10; [3]) [nM] | IC50 (αvβ3 receptor) [nM] | IC50 (HT29; human, 6 day) [nM] | IC50 (SW 480; human, 6 day) [nM] | IC50 (B16F10; mouse, 6 day) [nM] |
| --- | --- | --- | --- | --- | --- | --- | --- |
| CCCNC(=O)Nc1cccc(S(=O)(=O)Nc2cccc(C(CC(=O)O)NC(=O)Nc3ccc(NC(=S)N4CCC[C@@H]4C(=O)N[C@@H](CC(C)C)C(=O)NCC(=O)N[C@H](CCC)C(=O)N[C@H](CC(N)=O)C(=O)N[C@@H](C(=O)O[C@@]4(CC)C(=O)OCc5c4cc4n(c5=O)Cc5cc6ccccc6nc5-4)C(C)C)cc3)c2)c1 (single isomer, unassigned) [Example 21] | 30 | 60 | 200 | – | – | – | – |
| CCCCNC(=O)Nc1cccc(S(=O)(=O)Nc2cccc(C(CC(=O)O)NC(=O)Nc3ccc(NC(=S)NCC(=O)N4CCC[C@@H]4C(=O)N[C@@H](CC(C)C)C(=O)NCC(=O)N[C@H](CC(C)C)C(=O)N[C@H](CC(N)=O)C(=O)N[C@@H](C(=O)O[C@@]4(CC)C(=O)OCc5c4cc4n(c5=O)Cc5cc6ccccc6nc5-4)C(C)C)cc3)c2)c1 (single isomer, unassigned) [Example 22] | 15 | 30 | 90 | – | – | – | – |
| CCCNC(=O)Nc1cccc(S(=O)(=O)Nc2cccc(C(CC(=O)O)NC(=O)Nc3ccc(NC(=S)N4CCC[C@@H]4C(=O)N[C@@H](CC(C)C)C(=O)NCC(=O)N[C@H](Cc4c[nH]cn4)C(=O)N[C@@H](C(=O)O[C@@]4(CC)C(=O)OCc5c4cc4n(c5=O)Cc5cc6ccccc6nc5-4)C(C)C)cc3)c2)c1 (single isomer, unassigned) [Example 26] | 50 | 90 | 300 | – | – | – | – |
| CCCNC(=O)Nc1cccc(S(=O)(=O)Nc2cccc(C(CC(=O)O)NC(=O)Nc3ccc(NC(=S)N4CCC[C@@H]4C(=O)N[C@@H](CC(C)C)C(=O)NCC(=O)N[C@H](CC(C)C)C(=O)N[C@@H](C(=O)O[C@@]4(CC)C(=O)OCc5c4cc4n(c5=O)Cc5cc6ccccc6nc5-4)C(C)C)cc3)c2)c1 (single isomer, unassigned) [Example 27] | 150 | 200 | 800 | – | – | – | – |
| CCCNC(=O)Nc1cccc(S(=O)(=O)Nc2cccc(C(CC(=O)O)NC(=O)Nc3ccc(NC(=S)N4CCC[C@@H]4C(=O)N4CCC[C@@H]4C(=O)N[C@@H](CC(C)C)C(=O)NCC(=O)N[C@H](CC(C)C)C(=O)N[C@H](CC(N)=O)C(=O)N[C@@H](C(=O)O[C@@]4(CC)C(=O)OCc5c4cc4n(c5=O)Cc5cc6ccccc6nc5-4)C(C)C)cc3)c2)c1 (single isomer, unassigned) [Example 28] | 30 | 30 | 250 | – | – | – | – |
| CCCNC(=O)Nc1cccc(S(=O)(=O)Nc2cccc(C(CC(=O)O)NC(=O)Nc3ccc(NC(=S)NCC(=O)N4CCC[C@@H]4C(=O)N[C@@H](CC(C)C)C(=O)NCC(=O)N[C@H](CC(C)C)C(=O)N[C@H](Cc4c[nH]cn4)C(=O)N[C@@H](C(=O)O[C@@]4(CC)C(=O)OCc5c4cc4n(c5=O)Cc5cc6ccccc6nc5-4)C(C)C)cc3)c2)c1 (single isomer, unassigned) [Example 29] | 80 | 100 | 400 | – | – | – | – |
| CC[C@]1(OC(=O)[C@H](NC(=O)[C@@H](Cc2c[nH]cn2)NC(=O)[C@@H](CC(C)C)NC(=O)CNC(=O)[C@H](CC(C)C)NC(=O)[C@H]2CCCN2C(=O)Nc2cccc(C(CC(=O)O)NS(=O)(=O)c3ccc(-c4cccc(NC(=O)Nc5nc6ccccc6[nH]5)c4)cc3)c2)C(C)C)C(=O)OCc2c1cc1n(c2=O)Cc2cc3ccccc3nc2-1 (stereo partly drawn) [Example 7] ({X6-CO}-[dP]LG[dL][dH][dV]-{Camptothecin(20R,20-O)}) | 150 | 150 | 600 | 700 | – | – | – |
| CCCNC(=O)Nc1cccc(S(=O)(=O)Nc2cccc(C(CC(=O)O)NC(=O)Nc3ccc(NC(=S)N4CCC[C@@H]4C(=O)NCC(=O)NCC(=O)N[C@H](CC(C)C)C(=O)N[C@H](CC(N)=O)C(=O)N[C@@H](C(=O)O[C@@]4(CC)C(=O)OCc5c4cc4n(c5=O)Cc5cc6ccccc6nc5-4)C(C)C)cc3)c2)c1 (stereo partly drawn) [Example 23] ({X1-CO}-[NH(1,4-C6H4)NHCS][dP]GG[dL][dN][dV]-{Camptothecin(20R,20-O)}) | 150 | 400 | 1500 | – | – | – | – |
| CCCNC(=O)Nc1cccc(S(=O)(=O)Nc2cccc(C(CC(=O)O)NC(=O)Nc3ccc(NC(=S)N4CCC[C@@H]4C(=O)NC(Cc4c[nH]cn4)C(=O)NCC(=O)N[C@H](CC(C)C)C(=O)N[C@H](CC(N)=O)C(=O)N[C@@H](C(=O)O[C@@]4(CC)C(=O)OCc5c4cc4n(c5=O)Cc5cc6ccccc6nc5-4)C(C)C)cc3)c2)c1 (stereo partly drawn) [Example 24] ({X1-CO}-[NH(1,4-C6H4)NHCS][dP][ξH]G[dL][dN][dV]-{Camptothecin(20R,20-O)}) | 150 | 400 | 900 | – | – | – | – |
| CCCNC(=O)Nc1cccc(S(=O)(=O)Nc2cccc(C(CC(=O)O)NC(=O)Nc3ccc(NC(=S)N4CCC[C@H]4C(=O)N[C@@H](CC(C)C)C(=O)NCC(=O)N[C@@H](CC(C)C)C(=O)N[C@@H](C)C(=O)N[C@H](C(=O)O[C@]4(CC)C(=O)OCc5c4cc4n(c5=O)Cc5cc6ccccc6nc5-4)C(C)C)cc3)c2)c1 (stereo partly shown) [Example 30] | 400 | 500 | – | – | – | – | – |
| CCCNC(=O)Nc1cccc(S(=O)(=O)Nc2cccc(C(CC(=O)O)NC(=O)Nc3ccc(NC(=S)N4CCC[C@H]4C(=O)N[C@@H](CC(C)C)C(=O)NCC(=O)N[C@@H](CC(C)C)C(=O)N[C@H](C)C(=O)N[C@H](C(=O)O[C@]4(CC)C(=O)OCc5c4cc4n(c5=O)Cc5cc6ccccc6nc5-4)C(C)C)cc3)c2)c1 (stereo partly shown) [Example 31] | 250 | 300 | – | – | – | – | – |
| CCCNC(=O)Nc1cccc(S(=O)(=O)Nc2cccc(C(CC(=O)O)NC(=O)Nc3ccc(NC(=S)N4CCC[C@H]4C(=O)N[C@@H](CC(C)C)C(=O)NCC(=O)N[C@@H](CC(C)C)C(=O)N[C@H](C(=O)N[C@H](C(=O)O[C@]4(CC)C(=O)OCc5c4cc4n(c5=O)Cc5cc6ccccc6nc5-4)C(C)C)C(C)C)cc3)c2)c1 (stereo partly shown) [Example 32] | 100 | 120 | 200 | – | – | – | – |
| CCCNC(=O)Nc1cccc(S(=O)(=O)Nc2cccc(C(CC(=O)O)NC(=O)Nc3ccc(NC(=S)N4CCC[C@H]4C(=O)N[C@@H](CC(C)C)C(=O)NCC(=O)N[C@@H](CC(C)C)C(=O)N[C@@H](Cc4ccccc4)C(=O)N[C@H](C(=O)O[C@]4(CC)C(=O)OCc5c4cc4n(c5=O)Cc5cc6ccccc6nc5-4)C(C)C)cc3)c2)c1 (stereo partly shown) [Example 33] | 300 | 400 | 1000 | – | – | – | – |
| CCCNC(=O)Nc1cccc(S(=O)(=O)Nc2cccc(C(CC(=O)O)NC(=O)Nc3ccc(NC(=S)N4CCC[C@H]4C(=O)N[C@@H](CC(C)C)C(=O)NCC(=O)N[C@@H](CC(C)C)C(=O)N[C@@H](CO)C(=O)N[C@H](C(=O)O[C@]4(CC)C(=O)OCc5c4cc4n(c5=O)Cc5cc6ccccc6nc5-4)C(C)C)cc3)c2)c1 (stereo partly shown) [Example 34] | 50 | 100 | 800 | – | – | – | – |
| CCCNC(=O)Nc1cccc(S(=O)(=O)Nc2cccc(C(CC(=O)O)NC(=O)Nc3ccc(NC(=S)N4CCC[C@H]4C(=O)N[C@@H](CC(C)C)C(=O)NCC(=O)N[C@@H](CC(C)C)C(=O)N[C@H](C(=O)N[C@H](C(=O)O[C@]4(CC)C(=O)OCc5c4cc4n(c5=O)Cc5cc6ccccc6nc5-4)C(C)C)C(C)CC)cc3)c2)c1 (stereo partly shown) [Example 35] | 150 | 200 | 800 | – | – | – | – |
| CCCNC(=O)Nc1cccc(S(=O)(=O)Nc2cccc(C(CC(=O)O)NC(=O)Nc3ccc(NC(=S)N4CCC[C@H]4C(=O)N[C@@H](CC(C)C)C(=O)NCC(=O)N[C@@H](CC(C)C)C(=O)N[C@@H](CCC(=O)O)C(=O)N[C@H](C(=O)O[C@]4(CC)C(=O)OCc5c4cc4n(c5=O)Cc5cc6ccccc6nc5-4)C(C)C)cc3)c2)c1 (stereo partly shown) [Example 36] | – | – | – | – | 100 | 150 | 300 |
| CCCNC(=O)Nc1cccc(S(=O)(=O)Nc2cccc(C(CC(=O)O)NC(=O)Nc3ccc(NC(=S)N4CCC[C@H]4C(=O)N[C@@H](CC(C)C)C(=O)NCC(=O)N[C@@H](CC(C)C)C(=O)NCC(=O)N[C@H](C(=O)O[C@]4(CC)C(=O)OCc5c4cc4n(c5=O)Cc5cc6ccccc6nc5-4)C(C)C)cc3)c2)c1 (stereo partly shown) [Example 37] | 300 | 500 | – | – | – | – | – |
| CCCNC(=O)Nc1cccc(S(=O)(=O)Nc2cccc(C(CC(=O)O)NC(=O)Nc3ccc(NC(=S)N4CCC[C@H]4C(=O)N[C@@H](CC(C)C)C(=O)NCC(=O)N[C@@H](CC(C)C)C(=O)N4CCC[C@H]4C(=O)N[C@H](C(=O)O[C@]4(CC)C(=O)OCc5c4cc4n(c5=O)Cc5cc6ccccc6nc5-4)C(C)C)cc3)c2)c1 (stereo partly shown) [Example 38] | 150 | 200 | 1000 | – | – | – | – |
